{"source": "paper PMC3863987", "about": "(Journal of medicinal chemistry, 2012)", "key": {"recombinant P. vivax NMT": {"molecular_target": "T1, recombinant P. vivax NMT (Plasmodium vivax, UniProt A5K1A2)", "T1 sequence (A5K1A2 1-410)": "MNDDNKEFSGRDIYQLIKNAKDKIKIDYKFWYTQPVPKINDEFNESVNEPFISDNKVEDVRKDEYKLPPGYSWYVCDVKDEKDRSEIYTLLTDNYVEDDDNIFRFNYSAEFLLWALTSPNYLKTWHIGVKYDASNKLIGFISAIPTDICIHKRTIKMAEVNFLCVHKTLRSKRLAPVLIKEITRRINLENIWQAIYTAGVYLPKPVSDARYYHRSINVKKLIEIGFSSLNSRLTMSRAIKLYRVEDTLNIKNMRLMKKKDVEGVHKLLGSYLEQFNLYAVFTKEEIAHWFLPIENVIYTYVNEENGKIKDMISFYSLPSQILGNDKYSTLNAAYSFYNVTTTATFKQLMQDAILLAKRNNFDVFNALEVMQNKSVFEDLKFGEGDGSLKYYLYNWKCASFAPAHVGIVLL", "assay": "Fluorogenic NMT enzyme assay, P. vivax NMT", "type": "biochemical"}, "Solubility": {"assay": "Solubility", "type": "physicochemical", "conditions": "ethyl ester in position 3 in place of the aliphatic chain"}, "[1]": {"substrate": "C[C@H](NC(=O)[C@H](CC(=O)O)NC(=O)[C@H](CCCCN)NC(=O)[C@@H]1CCCN1C(=O)[C@H](CCCCN)NC(=O)[C@H](CO)NC(=O)[C@H](CCCCN)NC(=O)[C@H](CC(N)=O)NC(=O)[C@H](CO)NC(=O)CN)C(=O)N[C@@H](CO)C(=O)N[C@@H](CCC(N)=O)C(=O)N[C@@H](CCCNC(=N)N)C(=O)N[C@@H](CCCNC(=N)N)C(=O)N[C@@H](CCCNC(=N)N)C(N)=O", "assay": "Fluorogenic NMT enzyme assay, P. vivax NMT", "type": "biochemical, Plasmodium vivax", "conditions": "other: peptide substrate for the PvNMT assay, in assay conditions"}}}
{"molecule": "CCCCc1c(C)nc2ccc(OC)cc2c1SCCC#N.Cl", "note": "[Compound 1, 3-butyl-4-((2-cyanoethyl)thio)-6-methoxy-2-methyl-quinoline]", "values": [{"measurement": "inhibitory activity against PvNMT (in words)", "setting": "recombinant P. vivax NMT", "value": "micromolar IC50"}]}
{"molecule": "CCOC(=O)c1cnc2ccc(OC)cc2c1SCCC#N", "note": "[Compound 7]", "values": [{"measurement": "solubility (in words)", "setting": "Solubility", "value": "greatly improved solubility"}]}
{"molecule": "CCOC(=O)c1c(C)nc2ccccc2c1NCC#N.Cl", "note": "[Compound 17]", "values": [{"measurement": "inhibitory activity against PvNMT (in words)", "setting": "recombinant P. vivax NMT", "value": "complete loss of activity"}]}
{"molecule": "recombinant P. vivax NMT (Plasmodium vivax Sal-1) (protein) MNDDNKEFSGRDIYQLIKNAKDKIKIDYKFWYTQPVPKINDEFNESVNEPFISDNKVEDVRKDEYKLPPGYSWYVCDVKDEKDRSEIYTLLTDNYVEDDDNIFRFNYSAEFLLWALTSPNYLKTWHIGVKYDASNKLIGFISAIPTDICIHKRTIKMAEVNFLCVHKTLRSKRLAPVLIKEITRRINLENIWQAIYTAGVYLPKPVSDARYYHRSINVKKLIEIGFSSLNSRLTMSRAIKLYRVEDTLNIKNMRLMKKKDVEGVHKLLGSYLEQFNLYAVFTKEEIAHWFLPIENVIYTYVNEENGKIKDMISFYSLPSQILGNDKYSTLNAAYSFYNVTTTATFKQLMQDAILLAKRNNFDVFNALEVMQNKSVFEDLKFGEGDGSLKYYLYNWKCASFAPAHVGIVLL", "values": [{"measurement": "Km", "setting": "[1]", "value": "5.71 ± 0.6", "unit": "µM"}]}
